Read-outs that look alike come from different tables or passages of the source.
Legend:
Assay in all cases: Broth two-fold serial dilution MIC test
Staphylococcus aureus = assay type: cell-based, Staphylococcus aureus (ATCC 6538); conditions: Table 2, Saur
How it was run: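 Broth two-fold serial dilution from 500 ppm down to 0.25 ppm, compound delivered from acetone/methanol/water stock, inoculated with standardized cell suspension and incubated at an organism-appropriate temperature. MIC is the lowest concentration giving complete growth inhibition.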

Aspergillus niger = assay type: cell-based, Aspergillus niger (ATCC 6275); conditions: Table 2, Anig, TSB media
How it was run: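 Two-fold broth serial dilution from 500 ppm down to 0.25 ppm, compound stock in acetone/methanol/water 5:3:2. Vessels inoculated with standardized spore suspension harvested from agar slants, incubated at a species-appropriate temperature, then scored for growth/no growth. MIC is the lowest concentration giving complete growth inhibition.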

Pseudomonas aeruginosa = assay type: cell-based, Pseudomonas aeruginosa (ATCC 15442); conditions: Table 2, Psae
How it was run: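 Broth two-fold serial dilution MIC (500 to 0.25 ppm) was run against Pseudomonas aeruginosa, with compound from 1% stock in acetone/methanol/water 5:3:2. Vessels inoculated with standardized broth-grown cells were incubated, then scored for growth. MIC is the lowest concentration giving complete growth inhibition.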

Escherichia coli = assay type: cell-based, Escherichia coli (ATCC 11229); conditions: Table 2, Ecol
How it was run: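 Broth two-fold serial dilutions ran from 500 down to 0.25 ppm, prepared from a stock in acetone/methanol/water (5:3:2). Each tube received a standardized bacterial suspension and was incubated at a temperature suited to the species. MIC is the lowest concentration giving complete growth inhibition.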

[1] = Staphylococcus aureus, M9G media, read-out: MIC
[2] = Staphylococcus aureus, TSB media, read-out: MIC
[3] = Aspergillus niger, read-out: MIC
[4] = Pseudomonas aeruginosa, M9G media, read-out: MIC
[5] = Pseudomonas aeruginosa, TSB media, read-out: MIC
[6] = Escherichia coli, M9G media, read-out: MIC
[7] = Escherichia coli, TSB media, read-out: MIC

Row | Compound | MIC (Staphylococcus aureus; M9G media) [ppm] | MIC (Staphylococcus aureus; TSB media) [ppm] | MIC (Aspergillus niger) [ppm] | MIC (Pseudomonas aeruginosa; M9G media) [ppm] | MIC (Pseudomonas aeruginosa; TSB media) [ppm] | MIC (Escherichia coli; M9G media) [ppm] | MIC (Escherichia coli; TSB media) [ppm] | MIC (Staphylococcus aureus; [1]) [µg/mL] | MIC (Staphylococcus aureus; [2]) [µg/mL] | MIC (Aspergillus niger; [3]) [µg/mL] | MIC (Pseudomonas aeruginosa; [4]) [µg/mL] | MIC (Pseudomonas aeruginosa; [5]) [µg/mL] | MIC (Escherichia coli; [6]) [µg/mL] | MIC (Escherichia coli; [7]) [µg/mL]
1 | CCCCCCCCCCCCCC[N+]1(CC#CI)C=NCC1.O=S(=O)([O-])c1ccccc1 (stereo not drawn) [Compound 56, 1-(tetradecyl)-1-(3-iodopropargyl)-imidazolinium benzenesulfonate] | < 0.25 | < 0.25 | < 0.25 | 8 | 63 | < 0.25 | < 0.25 |  |  |  |  |  |  | 
2 | CCCCCCCCCCOC(=O)CC[N+]1(CC#CI)CCOCC1 [Compound 95, 4-[2-(decyloxycarbonyl)]ethyl-4-(3-iodopropargyl)-morpholinium methanesulfonate] |  |  |  |  |  |  |  | 32 | 64 | 32 | 500 | 500 | 16 | 64
3 | OCCCCCCCCCCCC[N+]1(CC#CI)CCCCC1 [Compound 20, 1-(12-hydroxydodecyl)-1-(3-iodopropargyl)-piperidinium 4-methylbenzenesulfonate] |  |  |  |  |  |  |  | 8 | 63 | 125 | > 250 | > 250 |  | 250
4 | CCCCCCCCCCCCCCCC[N+]1(CC#CI)CCCC1 [Compound 35, 1-hexadecyl-1-(3-iodopropargyl)-pyrrolidinium methanesulfonate] | 0.5 | 0.25 | 4 | > 500 | > 500 | 4 | 63 |  |  |  |  |  |  | 
5 | CCCCCCCCCCCCOC(=O)C[N+]1(CC#CI)CCCC1 [Compound 63, 1-(dodecyloxycarbonyl)methyl-1-(3-iodopropargyl)-pyrrolidinium 4-methylbenzenesulfonate] | 2 | 4 | 2 |  | 125 |  |  |  |  |  | 64 |  | 2 | 4
6 | CCCCCCCCCCCC[N+]1(CC#CI)CCCC1 [Compound 30, 1-dodecyl-1-(3-iodopropargyl)-pyrrolidinium benzenesulfonate] | 1 | 1 | 1 | 63 | 63 | 2 | 16 |  |  |  |  |  |  | 
7 | CCCCCCCCCCCCCCC[N+]1(CC#CI)CCCC1 [Compound 10, 1-pentadecyl-1-(3-iodopropargyl)-pyrrolidinium 4-methylbenzenesulfonate] |  | 1 |  | 8 | 250 | 4 | 32 | < 0.25 |  | < 0.25 |  |  |  | 
8 | OCCCCCCC[N+]1(CC#CI)CCCC1 [Compound 4, 1-(7-hydroxyheptyl)-1-(3-iodopropargyl)-pyrrolidinium 4-methybenzenesulfonate] |  |  |  |  |  |  |  | 500 | 500 | 250 | > 500 | > 500 | > 500 | 500
9 | CCCCCCCCCCCCCC[N+]1(CC#CI)CCNC1.O=S(=O)([O-])c1ccccc1 (stereo not drawn) [Compound 58, 3-(tetradecyt)-3-(3-iodopropargyl)-imidazolidinium benzenesulfonate] | 0.5 | 4 | 8 | 125 | > 500 | 4 | 8 |  |  |  |  |  |  | 
10 | CCCCCCCCCCCCC[N+]1(CC#CI)CCCC1 [Compound 36, 1-tridecyl-1-(3-iodopropargyl)-pyrrolidinium methanesulfonate] | < 0.25 | < 0.25 | 1 | 32 | 63 | 2 | 8 |  |  |  |  |  |  | 

— patent US5354862A, “Preparation and the use of halopropargylated cyclic quaternary ammonium compounds as antimicrobial agents” (Rohm and Haas Company, priority 1993, dated 1994)
